This assay has as its target SRC (Homo sapiens, UniProt P12931). The assay can be described thus: inhibition of SRC autophosphorylation (pY419) in cells, Western blot. In kind it is cell-based. In general terms: In western blotting, separated proteins are transferred to a membrane and probed.

Chain of SRC (P12931 2-536): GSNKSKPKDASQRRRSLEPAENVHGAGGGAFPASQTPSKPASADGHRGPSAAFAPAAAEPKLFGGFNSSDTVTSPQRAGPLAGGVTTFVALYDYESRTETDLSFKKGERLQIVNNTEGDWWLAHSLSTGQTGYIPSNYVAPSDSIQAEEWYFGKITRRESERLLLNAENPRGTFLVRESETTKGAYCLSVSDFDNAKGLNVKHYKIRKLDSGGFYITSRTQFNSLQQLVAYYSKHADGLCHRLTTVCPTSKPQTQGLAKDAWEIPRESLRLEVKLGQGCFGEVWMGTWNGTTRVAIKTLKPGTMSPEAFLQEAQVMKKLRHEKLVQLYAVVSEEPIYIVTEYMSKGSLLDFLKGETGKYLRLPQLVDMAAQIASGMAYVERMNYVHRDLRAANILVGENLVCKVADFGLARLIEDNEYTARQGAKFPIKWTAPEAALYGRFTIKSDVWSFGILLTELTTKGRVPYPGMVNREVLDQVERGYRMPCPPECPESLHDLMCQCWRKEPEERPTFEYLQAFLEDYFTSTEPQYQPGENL

Take `COc1cc(Nc2c(C#N)cnc3cc(OCCCN4CCN(C)CC4)c(OC)cc23)c(Cl)cc1Cl` [bosutinib]: the “inhibition of SRC autophosphorylation (pY419) in cells, Western blot” value was “Bosutinib and saracatinib displayed weaker inhibition of SRC autophosphorylation in all the cell lines tested”.

The values above are taken from PMC7611940, “A Conformation Selective Mode of Inhibiting SRC Improves Drug Efficacy and Tolerability” (Cancer Research, 2021).
